Patent US8846013B2, “Topical application of 1-hydroxyl-3,5-BIS(4′hydroxy styryl)benzene” (Johnson & Johnson Consumer Companies, Inc., priority 2012, dated 2014)

How the values were obtained:
IL-8 cytokine release = assay: Anti-inflammatory activity: IL-8 cytokine release from UV-exposed epidermal equivalents (EPI 200 HCF); format: cell-based, human; details: summary statement
Protocol: The topical anti-inflammatory activities of 1-hydroxyl 3,5-bis(4′hydroxyl styryl)benzene and its piperazine salt were evaluated as follows.
Epidermal equivalents (EPI 200 HCF), multilayer and differentiated epidermis consisting of normal human epidermal keratinocytes, were purchased from MatTek (Ashland, Mass.). Upon receipt, epidermal equivalents were incubated for 24 hours at 37° C. in maintenance medium without hydrocortisone. Equivalents were topically treated (2 mg/cm^2) with 1-hydroxyl 3,5-bis(4′hydroxyl styryl)benzene thereof in a 70:30 Ethanol-Propylene glycol vehicle two hours before exposure to solar ultraviolet light (1000W-Oriel solar simulator equipped with a 1-mm Schott WG 320 filter; UV dose applied: 70 kJ/m^2 as measured at 360 nm). The equivalents were incubated for 24 hours at 37° C. with maintenance medium then supernatants were analyzed for IL-8 cytokine release using commercially available kits (Millipore Corp., Billerica, Mass.).

Elastin = assay: Induction of Elastin gene expression in primary human dermal fibroblasts (quantitative PCR); format: cell-based; details: summary statement
Protocol: (§1) Primary human dermal fibroblasts (Lifeline Cell Technologies, Frederick, Md.) were grown until confluence in DMEM media (Invitrogen/Life Technologies, Carlsbad, 10 CA) with 10% FBS and 1% Penicillin-Streptomycin on 24 well tissue culture plates, followed by treatment with 1-hydroxyl 3,5-bis(4′hydroxyl styryl)benzene (0.1 ug/mL) with and without TNF-a for 48 hr. Post-treatment, cells were lysed using RLT buffer and total RNA was isolated using the RNeasy Mini Kit (Qiagen, Valencia, Calif.). Quantitative PCR was performed using the Gene Amp PCR System 9700 and 7500 Real Time PCR 15 System cycler (Applied Biosystems)/Life Technologies, Carlsbad, Calif.). Elastin (Qiagen) and Collagen1α1 primers (custom sequence-sense: 5′-TCC-CCA-GCT-GTC-TTA-TGG CT-3′ (SEQ ID NO: 1) and anti-sense: 5′-CAG-GCA-CGG-AAA-TTC-CTC-C-3′ (SEQ ID NO: 2)) were used. The housekeeping gene GAPDH was used for normalization (custom primer sequence: F 5′-ATC-TCT-GCC-CCC-TCT-GCT-G-3′ (SEQ ID NO: 3) and R 5′-ATG-GTT-CAC-ACC-CAT-GAC-GA-3′ (SEQ ID NO: 4); Invitrogen/Life Technologies, Carlsbad, Calif.). Fold-changes in PCR (normalized to 5 GAPDH) were calculated from untreated.

Collagen 1A = assay: Induction of Collagen1A gene expression in primary human dermal fibroblasts (quantitative PCR); format: cell-based; details: for Collagen 1A Normalized Fold-change in PCR (Mean): 48 hr, normalized to GAPDH, from untreated
Protocol: as §1

MMP-9 = assay: Inhibition of TNF-α-induced MMP-9 levels in epidermal equivalents (EPI 200 HCF); format: cell-based, human; details: summary statement
Protocol: The ability of 1-hydroxyl 3,5-bis(4′hydroxyl styryl)benzene to inhibit TNF-a induced MMP-9 levels was tested at different concentrations as follows. The formation of TNF-α induced MMP-9 is involved in the undesirable breakdown of extracellular matrix in human skin.
Epidermal equivalents (EPI 200 HCF) were purchased from MatTek (Ashland, Mass.). Upon receipt, the epidermal equivalents were incubated for 24 hours at 37° C. in maintenance medium without hydrocortisone. The equivalents were topically treated (2 mg/cm^2) with 1-hydroxyl 3,5-bis(4′hydroxyl styryl)benzene extracts in a 70% ethanol/30% propylene glycol vehicle 2 hours before treatment with TNF-α (100 ng/mL). the equivalents were incubated for 48 hours at 37° C. with maintenance medium then supernatants were analyzed for MMP-9 using commercially available kits (R&D Systems, Minneapolis, Minn.).

Oc1ccc(C=Cc2cc(O)cc(C=Cc3ccc(O)cc3)c2)cc1 [1-hydroxyl 3,5-bis(4′hydroxylstyryl)benzene]
reduction in UV-induced inflammation in human skin cells (in words) (IL-8 cytokine release): strong reduction

Oc1ccc(/C=C/c2cc(O)cc(/C=C/c3ccc(O)cc3)c2)cc1 [1-hydroxyl 3,5-bis(4′hydroxylstyryl)benzene]
expression of genes associated with elastin production (in words) (Elastin): increased | Collagen 1A Normalized Fold-change in PCR (Mean) (Collagen 1A; 0.1 ug/mL with TNF-α (10 ng/mL)): 1.36 | Collagen 1A Normalized Fold-change in PCR (Mean) (Collagen 1A; 0.1 ug/mL, without TNF-a): 2.96 | expression of genes associated with collagen production (in words) (Collagen 1A; summary statement): increased | reduction in UV-induced inflammation in human skin cells (in words) (IL-8 cytokine release): strong reduction | formation of TNF-α induced MMP-9 (in words) (MMP-9): inhibited
